Laboratory results: patent US20070043006A1, “Formulations of non-steroidal anti-inflammatory agents to treat pathologic ocular angiogenesis” (priority 2003, published 2007)

System: retinal neovascularization
Test: rat pup model of retinopathy of prematurity (oxygen-induced retinopathy)
Format: in vivo
Details: for inhibition of retinal neovascularization: newborn rat pups exposed to varying oxygen
Description: Anecortave acetate was tested for its angiostatic efficacy in a rat pup model of retinopathy of prematurity (Penn, at al., Investigative Ophthalmology & Visual Science, “The Effect of an Angiostatic Steroid on Neovascularization in a Rat Model of Retinopathy of Prematurity,” Vol. 42(1):283-290, January 2001). Newborn rat pups were placed in an atmosphere of varying oxygen content. The rats received a single intravitreal injection of vehicle or anecortave acetate (500 μg) upon return to room air (day 14) or 2 days later (day 16). There was significant retinal neovascularization in the rats that received vehicle injections.

How did the “preretinal neovascularization (neovascular score)” value (local administration, rat model of oxygen-induced retinopathy, FIG. 1) turn out when `CC(=O)OCC(=O)[C@@]1(O)CC[C@H]2[C@@H]3CCC4=CC(=O)CC[C@]4(C)C3=CC[C@@]21C` [Anecortave acetate, 4,9(11)-pregnadien-17α,21-diol-3,20dione-21-acetate] was run?
Its value is “inhibits preretinal neovascularization”.

What about the “inhibition of retinal neovascularization” value (single intravitreal injection 500 μg 2 days after return to room air (day 16)) of the same compound?
The value was 50%.

And the “inhibition of retinal neovascularization” value (single intravitreal injection 500 μg upon return to room air (day 14))?
Its value is 66%.
